Results published in ChEMBL document CHEMBL5550202, “Rationally Designed Highly Potent NKT Cell Agonists with Different Cytokine Selectivity through Hydrogen-Bond Interaction” (J Med Chem, 2024).
Active and inactive are the calls of the source. No cut-off for these calls is given here.

Assays:
[1] = system: Splenocyte; test: (§1) Ex vivo induction of Natural killer T cell mediated dendritic cell activation in C57BL/6 mouse splenocytes assessed as increase in CD80 expression on CD11c-positive dendritic cells at 2.33 nmol, ip administered as single dose in liposomal formulation measured after 24 hrs by flow cytometry analysis (reference value: 8.4%); type: functional
[2] = system: B16-F10; test: Antitumor activity against mouse B16-F10 cells implanted in C57BL/6 mouse assessed as reduction in metastatic nodules in lung at 0.58 nmol, ip administered as single dose in liposomal formulation for 1 day followed by tumor inoculation and measured after 3 weeks; type: functional, organism-based; details: time 22.0 day
[3] = system: Splenocyte; test: Induction of Th2-specific IL-4 secretion in C57BL/6 mouse splenocytes assessed as increase in IL-4 level in supernatant at 100 nM treated as liposomal formulation preincubated for 30 mins with anti-CD1d monoclonal antibody followed by compound addition and measured after 72 hrs by ELISA; type: functional, cell-based
[4] = system: Splenocyte; test: as §1, with “CD86” for “CD80”, “8.9%)” for “8.4%)”; type: functional
[5] = system: Splenocyte; test: Induction of Th1-specific IFN-gamma secretion in C57BL/6 mouse splenocytes assessed as increase in IFN-gamma level in supernatant at 100 nM treated as liposomal formulation preincubated for 30 mins with anti-CD1d monoclonal antibody followed by compound addition and measured after 72 hrs by ELISA; type: functional, cell-based
[6] = system: Splenocyte; test: as §1, with “proportion of IFN-gamma positive natural killer” for “CD80 expression on CD11c-positive dendritic”, “2.74%)” for “8.4%)”; type: functional
[7] = system: Splenocyte; test: Cytotoxicity against C57BL/6 mouse splenocytes assessed as reduction in cell viability at 10 to 1000 nM treated as liposomal formulation measured after 72 hrs by MTT assay; type: toxicity, cell-based; details: 1 µM, dose 10-1000 nM
[8] = system: Splenocyte; test: Induction of Th2-specific IL-4 secretion in C57BL/6 mouse splenocytes assessed as increase in IL-4 level in supernatant at 1 to 10 nM treated as liposomal formulation and measured after 72 hrs by ELISA; type: functional, cell-based; details: dose 1-10 nM
[9] = system: Mus musculus; test: Induction of Th1/2-balanced cytokine response in BALB/c mouse assessed as increase in IFN-gamma/IL-4 secretion ratio at 0.5 ug, ip administered as single dose in liposomal formulation and measured after 24 hrs by ELISA; type: functional, organism-based; details: dose 0.5 µg
[10] = system: Mus musculus; test: Induction of Th1/2-balanced cytokine response in C57BL/6 mouse assessed as increase in IFN-gamma secretion in serum at 2.33 nmol, ip administered as single dose in liposomal formulation and measured for 48 hrs by ELISA; type: functional, organism-based
[11] = system: Mus musculus; test: Induction of Th1/2-balanced cytokine response in BALB/c mouse assessed as activation of immune cells by measuring increase in IL-12 release in serum at 2.33 nmol, ip administered as single dose in liposomal formulation and measured at 6 hrs by ELISA; type: functional, organism-based
[12] = system: Mus musculus; test: Induction of Th1/2-balanced cytokine response in BALB/c mouse assessed as increase in IFN-gamma secretion in serum at 0.5 ug, ip administered as single dose in liposomal formulation and measured after 24 hrs by ELISA; type: functional, organism-based; details: dose 0.5 µg
[13] = target: T1, Antigen-presenting glycoprotein CD1d (Mus musculus) (UniProt P11609+P11610); test: Binding affinity to Cd1D in C57BL/6 mouse BMDC cells assessed as glycolipid presentation by measuring glycolipid/Cd1D complex formation at 100 nM treated as liposomal formulation and measured at 6 to 24 hrs by L363 cell surface staining based flow cytometry analysis; details: time 6-24 hrs
[14] = system: Mus musculus; test: Induction of Th1/2-balanced cytokine response in BALB/c mouse assessed as increase in IL-4 secretion in serum at 0.5 ug, ip administered as single dose in liposomal formulation and measured after 24 hrs by ELISA; type: functional, organism-based; details: dose 0.5 µg
[15] = system: B16-F10; test: (§2) Antitumor activity against mouse B16-F10 cells implanted in C57BL/6 mouse assessed as reduction in number of metastatic nodules in lung at 0.58 nmol, ip administered as single dose in liposomal formulation for 1 day followed by tumor inoculation and measured after 3 weeks relative to control; type: functional; set-up: scale not given: the % may be the effect or the level left; details: time 22 day
[16] = Induction of Th1-specific IFN-gamma secretion in C57BL/6 mouse splenocytes assessed as fold increase in IFN-gamma level in supernatant at 10 nM treated as liposomal formulation and measured after 72 hrs by ELISA relative to alpha-galactosylceramide; type: functional, Splenocyte
[17] = target: T1, Antigen-presenting glycoprotein CD1d (Mus musculus); test: Binding affinity to Cd1D in intact C57BL/6 mouse BMDC cells assessed as glycolipid/Cd1D complex formation by measuring strong staining of cell membrane at 100 nM treated as liposomal formulation and measured after 18 hrs by L363 mAb staining based confocal microscopic analysis
[18] = system: Mus musculus; test: Induction of Th1/2-balanced cytokine response in C57BL/6 mouse assessed as increase in IL-4 secretion in serum at 2.33 nmol, ip administered as single dose in liposomal formulation and measured for 48 hrs by ELISA; type: functional, organism-based
[19] = system: Mus musculus; test: Induction of Th1/2-balanced cytokine response in BALB/c mouse assessed as fold increase in IL-4 secretion in serum at 2.33 nmol, ip administered as single dose in liposomal formulation and measured after 2 hrs by ELISA relative to control; type: functional
[20] = Induction of Th1-specific IFN-gamma secretion in C57BL/6 mouse splenocytes assessed as fold increase in IFN-gamma level in supernatant at 1 nM treated as liposomal formulation and measured after 72 hrs by ELISA relative to alpha-galactosylceramide; type: functional, Splenocyte
[21] = system: Mus musculus; test: Induction of Th1/2-balanced cytokine response in BALB/c mouse assessed as fold increase in IFN-gamma secretion in serum at 2.33 nmol, ip administered as single dose in liposomal formulation and measured after 24 hrs by ELISA relative to control; type: functional
[22] = system: Mus musculus; test: Induction of Th1/2-balanced cytokine response in BALB/c mouse assessed as fold increase in IL-4 secretion in serum at 2.33 nmol, ip administered as single dose in liposomal formulation and measured after 6 to 48 hrs by ELISA; type: functional, organism-based; details: time 6-48 hrs
[23] = target: T1, Antigen-presenting glycoprotein CD1d (Mus musculus); test: Binding affinity to Cd1D in C57BL/6 mouse BMDC cells assessed as glycolipid presentation by measuring glycolipid/Cd1D complex formation at 100 nM treated as liposomal formulation preincubated for 12 hrs and cells further recultured without compound for 2 to 12 hrs by pulse-chase analysis; type: cell-based
[24] = system: B16-F10; test: Antitumor activity against mouse B16-F10 cells implanted in C57BL/6 mouse assessed as suppression of tumor progression at 0.58 nmol, ip administered as single dose in liposomal formulation for 1 day followed by tumor inoculation and measured after 3 weeks; type: functional, organism-based; details: time 22.0 day
[25] = system: B16-F10; test: as §2, with “inhibition” for “reduction in number”, “of” for “of metastatic nodules in”, “lung metastasis” for “lung”, “weeks by H and E staining based analysis” for “weeks”; type: functional; details: time 22 day
[26] = system: Mus musculus; test: Induction of Th1/2-balanced cytokine response in BALB/c mouse assessed as increase in IFN-gamma secretion in serum at 2.33 nmol, ip administered as single dose in liposomal formulation and measured after 24 hrs by ELISA; type: functional, organism-based

SMILES | Activity [1] | Activity [2] | Activity [3] | Activity [4] | Activity [5] | Activity [6] | Activity [7] | Activity [8] | Activity [9] | Activity [10] | Activity [11] | Activity [12] | Activity [13] | Activity [14] | Activity [15] | fold change (FC) [16] | Activity [17] | Activity [18] | fold change (FC) [20] | other results
CCCCCCCCCCCCCCCCCCCCCCCCCC(=O)N[C@@H](CO[C@H]1O[C@H](CO)[C@H](O)[C@H](O)[C@H]1O)[C@H](O)[C@H](O)CCCCCCCCCCCCCC [RGI-7000] | 27.6% | Active | inactive | 32% | inactive | 6.11% | Non-Toxic |  |  |  |  |  |  |  |  |  |  |  |  | 
CCCCCCCCCCCCCC[C@@H](O)[C@@H](O)[C@H](CO[C@H]1O[C@H](CO)[C@H](O)[C@H](O)[C@H]1O)NC(=O)CCCCCCCCCCCNS(=O)(=O)CCCCCCCCCCCC | 33.9% | Active | inactive | 46.8% | inactive | 12% | Non-Toxic | inactive | Active | Active | Active | Active | Active | Active | 66% | 4.7 | Active | Active | 6.2 | fold change (FC) [19]: 4.7; fold change (FC) [21]: 7; Activity [22]: inactive
CCCCCCCCCCCCCC[C@@H](O)[C@@H](O)[C@H](CO[C@H]1O[C@H](CO)[C@H](O)[C@H](O)[C@H]1O)NC(=O)CCCCCCCCCNS(=O)(=O)CCCCCCCCCCCCCC |  |  | inactive |  | inactive |  | Non-Toxic |  |  |  |  |  |  |  |  |  |  |  |  | 
CCCCCCCCCCCCCC[C@@H](O)[C@@H](O)[C@H](CO[C@H]1O[C@H](CO)[C@H](O)[C@H](O)[C@H]1O)NC(=O)CCCCCCCCCCCCNS(=O)(=O)CCCCCCCCCCC |  |  | inactive |  | inactive |  | Non-Toxic |  |  |  |  |  |  |  |  |  |  |  |  | 
CCCCCCCCCCCCCC[C@@H](O)[C@@H](O)[C@H](CO[C@H]1O[C@H](CO)[C@H](O)[C@H](O)[C@H]1O)NC(=O)CCCCCCCCCCNS(=O)(=O)CCCCCCCCCCCCC | 32.9% | Active | inactive | 44.6% | inactive | 11.2% | Non-Toxic | inactive | Active | Active | Active | Active | Active | Active | 82% | 7.7 | Active | Active | 9.6 | Activity [23]: Active; Activity [24]: Active; inhibition (INH) [25]: ~100%; Activity [26]: Active
CCCCCCCCCCCCCC[C@@H](O)[C@@H](O)[C@H](CO[C@H]1O[C@H](CO)[C@H](O)[C@H](O)[C@H]1O)NC(=O)CCCCCCCCCCCCCNS(=O)(=O)CCCCCCCCCC |  |  | inactive |  | inactive |  | Non-Toxic |  |  |  |  |  |  |  |  |  |  |  |  | 
